Assay [1] has as its system hemoglobin or ferritin-related stores. To be noted: given in early stage of iron deficiency (ferritin below 100 ug/L or transferrin saturation below 20%).
For assay [2] the test system is unchanged. Particulars: cited from earlier work.

In the case of iron dextran, in assay [1], the hemoglobin response entry is given as “without a concomitant increase in hemoglobin” and the serum ferritin response entry is “rise in serum ferritin”. In addition, the “quantitative iron utilization for hemoglobin or ferritin-related stores” value in assay [2] (dialysis-associated anemia, within the first 90 days after infusion, previous retrospective analysis) was “highly variable and incomplete within the first 90 days”. In addition, the “recovery of iron for hemoglobin synthesis or iron stores” value in assay [2] (iron deficiency anemia and normal renal function, early after intravenous infusion) was “incomplete”.
